The text below walks through data of US10774083B2, “Heterocyclic amide compound” (TAKEDA PHARMACEUTICAL COMPANY LIMITED, priority 2016, dated 2020).

Assay [1] deals with human malignant melanoma cell line SKMEL-2. The assay is described as follows: antitumor action on mice transplanted with human malignant melanoma cell line SKMEL-2. The assay is classed as in vivo, mouse. The following applies: once per day, 14 days. The procedure:
An antitumor action of the compound of the present invention on mice transplanted with human malignant melanoma cell line SKMEL-2 and human fibrosarcoma cell line HT-1080 was evaluated by the following method.
Human malignant melanoma cell line SKMEL-2 was subcutaneously transplanted by injection to 7-week-old BALB/cA Jcl-nu/nu female mice (CLEA Japan, Inc.) at 1.0×10^7 cells (G1). At the time point when the tumor volume reached around 800 mm^3 after transplantation, the cells were subcultured and transplanted into 7-week-old BALB/cA Jcl-nu/nu female mouse (CLEA Japan, Inc.) by using trocar (G2). […] At 13 days from transplantation, the tumor diameter of the engrafted tumor was measured and the tumor volume was calculated by the following formula.
Individuals having a tumor volume of 100 to 300 mm^3 were selected for SKMEL-2, and individuals having a tumor volume of 200 to 400 mm^3 were selected for HT-1080, and 4 or 5 mice per group were used for the experiment. […] The tumor diameter was measured one day before the start of administration and one day after completion of administration and the tumor volume was calculated.
The tumor proliferation rate (T/C (%)) of the test compound administration group in comparison with the control administration group was calculated by the following formula. […]

For assay [2], the system named is human ovarian cancer cells A2780. Kind of assay: proliferation inhibitory activity against human ovarian cancer cell A2780 (CellTiter-Glo). Type of assay: cell-based. The following applies: A2780, 72 h, 1 μM test compound, 3 days of culture, read-out: proliferation inhibitory rate (%) of A2780 cells. In short, it runs like this:
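A2780 cells in RPMI-1640 with 10% FBS, compound added the day after seeding and cultured 3 days. Viability by CellTiter-Glo luminescence. Inhibition (%) calculated with cell-free wells as 100% inhibition.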
Background: In ATP-based viability assays light output follows the ATP content of the culture.

Turning to `Cc1cc(N2CC[C@@](C#N)(C3CC3)C2=O)cc(C(=O)NCc2cc(F)cc(-c3cnn(C)c3)c2)n1` [Example 159, 4-((3S)-3-cyano-3-cyclopropyl-2-oxopyrrolidin-1-yl)-N-(3-fluoro-5-(1-methyl-1H-pyrazol-4-yl)benzyl)-6-methylpyridine-2-carboxamide], the “T/C (%) tumor proliferation rate” value in assay [1] (SKMEL-2, 5 mg/kg orally) is listed as 64%; in assay [1] (SKMEL-2, 10 mg/kg orally), 7.7%. The inhibition at 1 µM in assay [2] turned out to be 96%.
